From patent US12409161B2, “Compound for treating neurodegenerative disorders” (FUDAN UNIVERSITY, priority 2019, dated 2025)

What was measured:
[1] = target: T1, mutant ATXN1 protein (His-ATXN1-Q92) (Homo sapiens, UniProt P54253, INS208QQQQQQQQQQQQQQQQQQQQQQQQQQQQQQQQQQQQQQQQQQQQQQQQQQQQQQQQQQQQQQQQQQQQQQQQQQQQQQQQ); assay: HTRF of mutant ATXN1 level in HEK293T cells expressing His-ATXN1-Q92; type: cell-based; conditions: 100 nM for 2 days, HTRF anti-His-Tb/MW1-D2
T1 construct: expressed in transfected cells; host or cells: HEK293T (ATCC, CRL-3216)

Q25-GFP [2] = assay: Level of polyQ-GFP fusion protein in HEK293T cells (Incucyte fluorescence counting); type: cell-based; conditions: 100 nM compound 1 or 50 nM compound 2 for 2 days
From the text: (§1) The inventors used HEK293T cells exogenously expressing polyQ-GFP fusion proteins (Q72-GFP or Q25-GFP) to detect compounds that can control the level of proteins containing expanded polyglutamine in the cells. The method was as follows:
(§2) (1) PolyQ-GFP cDNA sequence (expressing Met-polyQ-GFP, wherein polyQ was Q72 or Q25) was synthesized de novo and subcloned into pcDNA vector. It was transfected into HEK293T cells (ATCC, CRL-3216) through forward transfection to obtain Q72-GFP expressing cells and Q25-GFP expressing cells, respectively. And the same method was used to obtain cells expressing Q53-GFP, cells expressing Q46-GFP, and cells expressing Q38-GFP.
(§3) (3) The Q72-GFP expressing cells and Q25-GFP expressing cells obtained in step (1) were used. […] Then the level of polyQ-GFP was measured by Incucyte fluorescence counting (FIG. 1).

Q72-GFP = assay: as above; type: cell-based; conditions: 100 nM compound 1 or 50 nM compound 2 for 2 days
From the text: as §1, §2, §3

mHTT [3] = target: T2, mHTT (Homo sapiens, UniProt P42858, INS38QQQQQQQQQQQQQQQQQQQQQQQQQQ); assay: HTRF of mHTT in HD patient iPSC-derived neurons (Q47); type: cell-based
T2 construct: endogenous in cells; host or cells: HD patient iPSC-derived neurons (Q47)

[4] = target: T3, human HTT full-length protein (Q128) (Homo sapiens, UniProt P42858); assay: mHTT level in heads of Huntington's disease Drosophilae (HTRF); type: in vivo, Drosophila; conditions: food with 10 μM in 400 μL DMSO, 6 days, head protein, HTRF 2B7/MW1
T3 construct: transgenic Drosophilae expressing human HTT full-length protein (Q128); tissue Bloomington Drosophila Stock Center (fly lines); host or cells: heads of elav-GAL4 x UAS-fl-HTT-Q128 Drosophila
Description: Crosses were set up between virgin female Drosophilae carrying elav-GAL4 driver and the UAS-fl-HTT-Q16 or UAS-fl-HTT-Q128 male Drosophilae to generate a transgenic Drosophilae driven by elav-GAL4 to express human HTT full-length protein (Q16) or (Q128) in the nervous system.
The negative control group was given the corresponding solvent DMSO, and the positive drug groups was given the corresponding positive drug.
Drosophilae were kept in standard food at 25° C. The newly hatched Drosophilae were transferred to vials with food containing the positive drug (10 μM in 400 μL DMSO) or DMSO for control. The corn food was changed every other day.
The mHTT level was measured by HTRF (antibody pair: 2B7/MW1), where each sample included head proteins from five Drosophila (FIG. 14).

[5] = target: T4, full-length mHTT (flHTT-Q73) (Homo sapiens, UniProt P42858, INS38QQQQQQQQQQQQQQQQQQQQQQQQQQQQQQQQQQQQQQQQQQQQQQQQQQQQ); assay: OI-RD detection of affinity to full-length HTT; type: binding
T4 construct: protein A (N, cleaved yes); made in house; host or cells: human embryonic kidney E293 cells
Description: (1) The human HTT gene (GenBank: NM_002111.8) with (CAG)23 or (CAG)73 was synthesized de novo by Genewiz Inc. The human HTT gene was cloned into the modified pCAG vector (from Addgene) with N-terminal protein A tag.
The protein is purified with IgG monoclonal antibody-agarose (Smart-lifesciences, SA030010), digested with TEV protease to remove the protein A tag, and further purified with Mono Q and Superose 6 (5/150 GL) columns from GE healthcare. Validation is conducted using Coomassie blue staining and Western-blots.

[6] = target: T5, wild-type ATXN3 protein (ATXN3-Q27) (Homo sapiens, UniProt P54252, G306R/INS305QQQQQQQQQQQQQQQQQ/V212M); assay: Western-blot of ATXN3 level in fibroblasts; type: cell-based; conditions: 100 nM compound 1 or 50 nM compound 2 for 2 days; Western-blots
T5 construct: endogenous in cells; host or cells: wild-type fibroblasts (Q27), and possibly the normal allele of SCA3 patient fibroblasts
Description: (§4) Some primary patient fibroblasts and wild-type cells are from HD patients (Q47, Q55) of the Mongolian Huntington's disease family and healthy controls (WT, Q19). SCA3 cell line was from patient (Q74). The HD Q68 fibroblast cell line was from Coriell Cell Repositories (Camden, N.J., USA). Immortalized fibroblasts and induced stem cells (iPSCs) are prepared from primary fibroblasts. HEK293T cells were from ATCC.
(§5) Then the levels of mutant ATXN3 protein (ATXN3-Q74, SEQ ID NO: 3) and wild-type ATXN3 protein (ATXN3-Q27, SEQ ID NO: 4) were determined by Western-blots (FIG. 22). […] Therefore, the compound can be used to treat SCA3.

mHTT [7] = assay: Western-blot of HTT levels in primary cultured Hdh^Q140/Q7 mouse cortical neurons; type: cell-based; conditions: treated 2 days, Western-blots (antibody 2166)
Description: (§6) Primary cultured cortical neurons: The brains of Hdh^Q140/Q7 and Hdh^Q7/Q7 newborn mice (P0) were dissected, digested, dissociated, and cultured.
(§7) (1) The primary cultured Hdh^Q140/Q7 and Hdh^Q7/Q7 mouse cortical neuron cells were treated with the compound for 2 days. Then the levels of mHTT and wtHTT were detected by Western-blots (antibody 2166) (FIG. 4 and FIG. 5). […]

wtHTT [8] = target: T6, wtHTT (Mus musculus, UniProt P42859); assay: Western-blot of HTT levels in primary cultured Hdh^Q7/Q7 mouse cortical neurons; type: cell-based; parameters: endogenous in cells; host or cells: primary cortical neurons of newborn Hdh Q140/Q7 or Hdh Q7/Q7 mice; conditions: treated 2 days, Western-blots (antibody 2166)
Description: as §6, §7

wtHTT [9] = target: T6, wtHTT; conditions: Hdh^Q140/Q7 mouse cortical neurons, treated 2 days, Western-blots (antibody 2166)
Description: as §6
(1) The primary cultured Hdh^Q140/Q7 and Hdh^Q7/Q7 mouse cortical neuron cells were treated with the compound for 2 days.

[10] = target: T7, mutant ATXN3 protein (ATXN3-Q74) (Homo sapiens, UniProt P54252, G306R/INS305QQQQQQQQQQQQQQQQQQQQQQQQQQQQQQQQQQQQQQQQQQQQQQQQQQQQQQQQQQQQQQQQ/V212M); assay: Western-blot of ATXN3 level in SCA3 patient fibroblasts (Q74); type: cell-based; conditions: 100 nM compound 1 or 50 nM compound 2 for 2 days, Western-blots
T7 construct: endogenous in cells; host or cells: SCA3 patient fibroblasts (Q74)
Description: as §4, §5

[11] = test system: HD patient iPSC-derived neurons (Q47); assay: Neuronal apoptosis of HD patient iPSC-derived neurons after BDNF removal (TUBB3 immunostaining, caspase-3 activity); type: cell-based, human; conditions: 100 nM compound 1 or 50 nM compound 2 for 1 day, then BDNF removal
Description: Immunofluorescence: cells were washed, fixed, permeabilized and blocked, then incubated with primary antibody overnight at 4° C., then washed three times with blocking buffer, and incubated with secondary antibody for 1 hour at room temperature, stained with DAPI, and mounted. Images were taken by Zeiss Axio Vert A1 confocal microscope. TUBB3 or co-localization was analyzed using ImageJ.
Then the cells were stressed (by BDNF removal).
Neuronal specific tubulin marker TUBB3 […]. The TUBB3 signal covered area was normalized to the cell nuclei counts, and the data was normalized to the wild type controls to analyze neuronal apoptosis (FIG. 12).
NucView 488 (Biotium, 30029) was used to detect active caspase-3. After removing BDNF, Incucyte (Essen Bioscience, IncuCyte FLR) was used to capture images every 3 hours in the incubator, which were analyze with Incucyte 2011A software. Three batches were tested and the results were consistent (FIG. 13).

mHTT [12] = assay: HTRF of mHTT in HD patient immortalized fibroblasts; conditions: at different doses (FIG. 10)
Description: Homogeneous time-resolved fluorescence (HTRF) analysis: the cell or tissue lysate was diluted with the original lysis buffer PBS+1% (v/v) Triton X-100+1×cOmplete™ protease inhibitor to lyse the sample, then HTRF assay buffer (50 mM NaH2PO4, 400 mM NaF, 0.1% BSA, 0.05% (v/v) Tween-20, 1% (v/v) Triton X-100, pH 7.4) was used to dilute the specified antibody pair for detection. In HTRF buffer, the donor antibody concentration was 0.023 ng/μL and the acceptor antibody concentration was 1.4 ng/μL.

mHTT aggregates = mHTT aggregates in cortices of Hdh^Q140/Q7 mice (dot-blot, HTRF 4C9/4C9); type: in vivo, mouse; conditions: ip-injection, dot-blot 4C9 and HTRF 4C9/4C9
Description: (§8) Experimental method: The compound or control DMSO was diluted with 0.9% NaCl intravenous infusion solution to 0.05 μg/μL. One ip-injection (0.5 mg/kg) was conducted per day. After 14 days of injection, tissue extraction or behavioral experiment were conducted.
(3) mHTT aggregates in the cortices of Hdh^Q140/Q7 mice were detected by dot-blot experiment (antibody: 4C9, bar plot showing the results of two repetitions) and HTRF (antibody pair: 4C9/4C9). Sampling was repeated for each mouse two to three times on average (FIG. 20).

mHTT [13] = assay: Intraperitoneal injection: mHTT and wtHTT levels in cortices and striata of HD mice (Western-blots); type: in vivo, mouse; conditions: Hdh^Q140/Q7 mice, ip 0.5 mg/kg per day, 14 days
Description: as §8
(1) 13 Hdh^Q140/Q7 mice (5 months old) were randomized into 2 groups.
One ip-injection was conducted per day. After 14 days of injection, the protein was extracted and the levels of mHTT and wtHTT in the cortices of HD mice were detected by Western-blots (FIG. 18).
(2) A total of 13 mice Hdh^Q140/Q7 mice (10 months old) were used, 6-7 mice in each group. According to the above method, the mouse brain striatum neuronal protein was extracted and the levels of mHTT and wtHTT were detected by Western-blots (FIG. 19).

[14] = target: T8, normal ATXN3 protein (MBP-ATXN3-Q28) (Homo sapiens, UniProt P54252, INS305QQQQQQQQQQQQQQQQQQ); assay: MST detection of affinity to ATXN3; type: binding; conditions: method in 2.2
T8 construct: His8; made in house; host or cells: Escherichia coli Rosetta(DE3)pLysS
Description: (1) His8 tag and TEV protease cleavage site is added in pMal-C2x plasmid (from New England Biolabs) to prepare prokaryotic expression vector pMBP. The ATXN3 gene (GenBank: NM_001127696.2) is edited to control the length of the expanded polyglutamine, the gene is amplified and cloned into the prepared pMBP to obtain the pMBP-ATXN3-Q28 and pMBP-ATXN3-Q68 plasmids with polyQ repeated 28 and 68 times, respectively.
(2) The expression plasmids pMBP-ATXN3-Q28 and pMBP-ATXN3-Q68 were introduced into Escherichia coli Rosetta(DE3)pLsyS for expression. Preliminary purification was conducted with HisTrap HP column (GE Healthcare, 17524701). The product was concentrated by ultrafiltration and then further purified with Superose 6 Increase 10/300 GL size exclusion column (GE Healthcare).
(3) As verified by SDS-PAGE, the purity of the prepared human MBP-ATXN3-Q28 and MBP-ATXN3-Q68 exceeds 98%.

[15] = In vivo compound detection in brain tissues of ip-injected mice (LC-MS/MS); conditions: mouse, 2 hours after ip-injection (0.5 mg/kg), read-out: level of compound reached the brain tissue
Description: as §8
In vivo compound detection in brain tissues of ip-injected mice: 2 hours after ip-injection of DMSO or compound in mice, the brain was dissected, weighed, and the compound in the brain tissue was extracted, analyzed with UPLC-MS (Acquity Ultra Performance Liquid Chromatography System, Acquity UPLC BEH C18 (1.7 μm, 2.1×50 mm) column and Xevo TQ-S mass spectrometer, Waters Corporation, Milford, MA, USA) for LC-MS/MS analysis. […] The compound of the present invention can be delivered to the brain of mice through the BBB smoothly, which potentially facilitates oral administration of the compound.

Q25-GFP [16] = conditions: MST; 20 mM HEPES, pH 7.4, 150 mM NaCl; protein 500 nM
mHTT [17] = assay: Intracerebroventricular injection: mHTT and wtHTT levels in cortices of HD mice (Western-blots); type: in vivo, mouse; conditions: Hdh^Q140/Q7 mice; icv 2 μL of 25 μM per day, 10 days; Western-blots (antibody 2166)
Description: Mice expressing wild-type HTT gene (Hdh^Q7/Q7) were from the Marian Difiglia laboratory of Massachusetts General Hospital, Harvard University.
Experimental animals: Hdh^Q140/Q7 mice (3 months old), 4 in each group.
Each test includes three repetitions for each sample, and the mean values was calculated (FIG. 17).

T1 sequence (P54253 with tags, fused parts or gaps with the stated changes): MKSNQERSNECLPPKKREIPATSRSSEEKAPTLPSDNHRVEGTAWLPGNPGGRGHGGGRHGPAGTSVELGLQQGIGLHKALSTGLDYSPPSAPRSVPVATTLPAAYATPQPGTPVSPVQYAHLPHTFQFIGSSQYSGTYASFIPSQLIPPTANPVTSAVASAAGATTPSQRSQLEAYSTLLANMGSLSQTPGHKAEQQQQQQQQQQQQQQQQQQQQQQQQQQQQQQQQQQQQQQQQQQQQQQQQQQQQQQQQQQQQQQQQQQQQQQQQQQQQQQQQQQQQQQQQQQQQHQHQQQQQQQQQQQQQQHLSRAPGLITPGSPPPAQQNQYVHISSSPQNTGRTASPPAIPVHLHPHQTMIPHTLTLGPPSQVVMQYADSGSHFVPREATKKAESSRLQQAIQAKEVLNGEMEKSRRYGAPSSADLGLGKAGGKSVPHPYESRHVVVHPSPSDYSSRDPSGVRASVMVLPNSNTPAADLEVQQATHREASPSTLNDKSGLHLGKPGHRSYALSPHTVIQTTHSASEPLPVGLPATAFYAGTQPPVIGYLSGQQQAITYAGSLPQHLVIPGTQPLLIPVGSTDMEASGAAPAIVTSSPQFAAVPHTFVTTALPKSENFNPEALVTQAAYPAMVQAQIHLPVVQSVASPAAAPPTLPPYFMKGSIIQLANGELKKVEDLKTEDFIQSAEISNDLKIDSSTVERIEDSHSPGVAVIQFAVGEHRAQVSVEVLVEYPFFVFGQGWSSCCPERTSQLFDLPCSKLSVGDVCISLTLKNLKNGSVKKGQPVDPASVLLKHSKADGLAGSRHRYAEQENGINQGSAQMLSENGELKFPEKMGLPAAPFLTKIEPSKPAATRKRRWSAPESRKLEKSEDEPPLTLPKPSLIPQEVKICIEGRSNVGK
T5 sequence (P54252 with tags, fused parts or gaps isoform P54252-1 with the stated changes): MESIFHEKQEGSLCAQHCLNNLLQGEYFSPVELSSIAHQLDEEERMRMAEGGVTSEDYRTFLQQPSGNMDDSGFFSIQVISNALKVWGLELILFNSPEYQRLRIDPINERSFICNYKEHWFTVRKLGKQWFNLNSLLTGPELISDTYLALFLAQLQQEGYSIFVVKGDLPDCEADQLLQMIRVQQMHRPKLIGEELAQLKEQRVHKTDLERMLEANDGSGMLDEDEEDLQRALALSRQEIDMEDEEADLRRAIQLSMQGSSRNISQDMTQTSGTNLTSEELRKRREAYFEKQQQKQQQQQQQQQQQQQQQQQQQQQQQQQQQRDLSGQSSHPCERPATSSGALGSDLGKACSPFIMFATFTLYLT
T6 sequence (P42859 whole entry): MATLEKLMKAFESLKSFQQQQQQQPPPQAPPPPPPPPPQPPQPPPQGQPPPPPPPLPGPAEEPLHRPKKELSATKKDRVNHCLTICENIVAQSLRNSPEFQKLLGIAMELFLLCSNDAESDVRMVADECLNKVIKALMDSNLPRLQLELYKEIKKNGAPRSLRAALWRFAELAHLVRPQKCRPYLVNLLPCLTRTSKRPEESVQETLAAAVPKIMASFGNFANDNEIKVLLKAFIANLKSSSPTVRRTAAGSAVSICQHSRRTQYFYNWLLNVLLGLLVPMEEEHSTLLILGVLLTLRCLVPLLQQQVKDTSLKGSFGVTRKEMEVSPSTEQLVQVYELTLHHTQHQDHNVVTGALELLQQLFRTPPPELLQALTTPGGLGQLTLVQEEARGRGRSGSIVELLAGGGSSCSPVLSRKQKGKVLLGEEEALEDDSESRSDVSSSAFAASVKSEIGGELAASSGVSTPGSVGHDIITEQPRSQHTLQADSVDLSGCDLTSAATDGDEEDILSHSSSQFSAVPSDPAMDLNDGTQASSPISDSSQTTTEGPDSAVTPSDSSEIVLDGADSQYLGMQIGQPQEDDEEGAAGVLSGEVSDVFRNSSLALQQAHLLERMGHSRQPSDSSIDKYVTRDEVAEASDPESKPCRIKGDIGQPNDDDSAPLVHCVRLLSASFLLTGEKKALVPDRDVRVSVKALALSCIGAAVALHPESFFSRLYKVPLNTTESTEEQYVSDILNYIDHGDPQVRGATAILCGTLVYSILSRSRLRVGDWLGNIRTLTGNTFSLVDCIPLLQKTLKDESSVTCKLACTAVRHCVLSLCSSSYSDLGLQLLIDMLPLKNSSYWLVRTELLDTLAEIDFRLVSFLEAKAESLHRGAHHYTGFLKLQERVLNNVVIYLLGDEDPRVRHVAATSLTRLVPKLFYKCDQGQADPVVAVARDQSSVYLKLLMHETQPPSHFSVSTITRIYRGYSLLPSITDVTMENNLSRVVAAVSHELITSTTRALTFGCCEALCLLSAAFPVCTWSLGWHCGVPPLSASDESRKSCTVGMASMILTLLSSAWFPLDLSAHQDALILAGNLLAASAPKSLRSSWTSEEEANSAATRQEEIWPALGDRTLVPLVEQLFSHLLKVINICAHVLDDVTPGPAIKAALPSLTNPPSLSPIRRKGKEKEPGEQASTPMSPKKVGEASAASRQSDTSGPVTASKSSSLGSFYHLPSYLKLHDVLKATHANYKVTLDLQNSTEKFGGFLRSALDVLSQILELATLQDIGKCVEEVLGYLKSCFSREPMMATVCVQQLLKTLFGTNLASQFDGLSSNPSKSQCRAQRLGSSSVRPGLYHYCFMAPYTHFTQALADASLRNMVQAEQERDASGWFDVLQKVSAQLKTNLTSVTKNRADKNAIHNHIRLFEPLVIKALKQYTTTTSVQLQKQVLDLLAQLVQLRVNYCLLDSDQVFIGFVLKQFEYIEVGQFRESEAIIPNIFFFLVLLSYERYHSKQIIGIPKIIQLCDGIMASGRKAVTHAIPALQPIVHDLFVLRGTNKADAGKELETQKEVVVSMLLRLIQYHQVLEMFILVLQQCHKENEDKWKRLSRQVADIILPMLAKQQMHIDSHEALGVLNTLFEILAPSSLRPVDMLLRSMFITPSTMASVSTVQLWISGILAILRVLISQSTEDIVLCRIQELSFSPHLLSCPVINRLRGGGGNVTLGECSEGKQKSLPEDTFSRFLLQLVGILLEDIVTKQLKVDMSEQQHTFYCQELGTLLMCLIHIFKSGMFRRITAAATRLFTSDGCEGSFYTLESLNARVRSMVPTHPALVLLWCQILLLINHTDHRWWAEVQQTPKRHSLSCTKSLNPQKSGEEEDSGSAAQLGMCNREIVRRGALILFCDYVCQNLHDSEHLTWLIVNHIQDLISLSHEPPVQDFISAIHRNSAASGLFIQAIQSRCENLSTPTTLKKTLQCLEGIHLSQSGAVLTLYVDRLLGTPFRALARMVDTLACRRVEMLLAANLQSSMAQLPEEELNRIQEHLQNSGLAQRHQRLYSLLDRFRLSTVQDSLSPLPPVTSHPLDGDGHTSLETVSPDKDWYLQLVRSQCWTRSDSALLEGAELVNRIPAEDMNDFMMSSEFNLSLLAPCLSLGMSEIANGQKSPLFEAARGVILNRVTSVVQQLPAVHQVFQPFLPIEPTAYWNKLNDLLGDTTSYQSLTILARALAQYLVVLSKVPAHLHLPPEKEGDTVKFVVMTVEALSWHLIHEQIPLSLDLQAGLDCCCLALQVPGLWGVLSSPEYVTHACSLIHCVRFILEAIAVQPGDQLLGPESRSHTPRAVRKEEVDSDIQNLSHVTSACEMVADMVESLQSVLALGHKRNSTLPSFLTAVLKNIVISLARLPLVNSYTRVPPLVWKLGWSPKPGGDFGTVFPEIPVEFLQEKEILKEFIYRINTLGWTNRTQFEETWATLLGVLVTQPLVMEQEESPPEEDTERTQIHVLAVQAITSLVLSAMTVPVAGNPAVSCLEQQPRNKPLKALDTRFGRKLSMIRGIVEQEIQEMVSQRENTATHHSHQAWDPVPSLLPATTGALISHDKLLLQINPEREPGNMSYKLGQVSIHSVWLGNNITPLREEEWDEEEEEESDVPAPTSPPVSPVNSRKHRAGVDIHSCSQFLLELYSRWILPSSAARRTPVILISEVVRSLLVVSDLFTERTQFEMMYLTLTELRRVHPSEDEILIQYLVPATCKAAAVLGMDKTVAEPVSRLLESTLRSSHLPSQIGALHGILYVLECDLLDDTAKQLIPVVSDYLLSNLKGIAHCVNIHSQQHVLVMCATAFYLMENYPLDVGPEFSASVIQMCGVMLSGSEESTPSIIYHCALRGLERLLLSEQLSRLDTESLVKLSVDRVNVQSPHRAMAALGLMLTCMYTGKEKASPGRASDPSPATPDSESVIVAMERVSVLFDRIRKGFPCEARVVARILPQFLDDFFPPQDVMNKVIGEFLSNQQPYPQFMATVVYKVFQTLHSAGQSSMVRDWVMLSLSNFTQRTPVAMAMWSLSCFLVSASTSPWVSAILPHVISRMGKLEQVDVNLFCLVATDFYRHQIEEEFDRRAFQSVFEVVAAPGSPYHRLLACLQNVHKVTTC
T7 sequence (P54252 with tags, fused parts or gaps isoform P54252-1 with the stated changes): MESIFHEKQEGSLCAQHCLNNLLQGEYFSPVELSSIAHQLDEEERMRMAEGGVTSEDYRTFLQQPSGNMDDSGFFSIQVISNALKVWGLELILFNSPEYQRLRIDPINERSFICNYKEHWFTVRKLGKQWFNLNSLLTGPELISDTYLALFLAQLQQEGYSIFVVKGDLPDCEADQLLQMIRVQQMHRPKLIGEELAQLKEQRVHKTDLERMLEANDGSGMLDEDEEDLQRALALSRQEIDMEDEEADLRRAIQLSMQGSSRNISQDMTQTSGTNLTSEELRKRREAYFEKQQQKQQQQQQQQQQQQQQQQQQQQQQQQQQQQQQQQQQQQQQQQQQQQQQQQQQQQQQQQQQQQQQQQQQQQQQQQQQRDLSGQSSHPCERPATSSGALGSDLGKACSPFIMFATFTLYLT

SMILES: COc1ccc2c(c1)/C(=C/c1cnc[nH]1)C(=O)N2 [compound 4, Su9516]
- levels of mutant ATXN1 [1]: Decreased levels

SMILES: Cc1ccc(C(=O)N(CCCN)[C@@H](c2nc3cc(Cl)ccc3c(=O)n2Cc2ccccc2)C(C)C)cc1 [compound 1, ispinesib]
- level of the protein containing the shorter polyglutamine (Q25-GFP) (Q25-GFP [2]): did not reduce
- level of the protein containing expanded polyglutamine (Q72-GFP) (Q72-GFP): effectively reduced
- mHTT levels in HD patient iPSC-derived neurons (mHTT [3]; neurons Q47, HTRF 2B7/MW1, method similar to 5.1): Decreased mHTT levels
- levels of mutant ATXN1 [1]: Decreased levels
- mHTT levels in transgenic Drosophilae [4]: reduced
- Kon [5]: 6.43e-05 min/nM
- wild-type ATXN3 protein level [6]: no decrease
- level of mHTT in cortical neurons (mHTT [7]): reduced
- wtHTT levels in cortical neurons (wtHTT [8]): did not reduce
- level of wtHTT in cortical neurons (wtHTT [9]): hardly affected
- mutant ATXN3 protein level [10]: decrease
- loss of processes and shrinkage of HD neurons after removal of BDNF [11]: significantly improved

SMILES: O=c1cc(-c2ccccc2)c2ccc(O)c(O)c2o1 [compound 6]
- levels of mutant ATXN1 [1]: Decreased levels

SMILES: CC(=O)Nc1cc2ccccc2oc1=O [compound 5]
- reduction of mHTT levels in HD patient iPSC-derived neurons (mHTT [3]; HTRF 2B7/MW1, same method as for compounds 1 and 2): approximately 26.8%

SMILES: O=c1cc(-c2ccccc2)c2c(O)cc(O)cc2o1 [compound 2]
- level of mHTT in HD patient immortalized fibroblasts (mHTT [12]): reduced
- mHTT aggregates in the cortices (mHTT aggregates): No increase in mHTT aggregates
- level of the protein containing the shorter polyglutamine (Q25-GFP) (Q25-GFP [2]): did not reduce
- level of the protein containing expanded polyglutamine (Q72-GFP) (Q72-GFP): effectively reduced
- levels of mHTT in the cortices (mHTT [13]): reduced
- levels of mHTT in the striata (mHTT [13]): reduced
- levels of mutant ATXN1 [1]: Decreased levels
- binding with normal ATXN3 protein (MBP-ATXN3-Q28) [14]: did not bind
- wild-type ATXN3 protein level [6]: no decrease
- level of mHTT in cortical neurons (mHTT [7]): reduced
- concentration at 2 h [15]: 9.48 ng/g
- binding affinity with Q25-GFP (Q25-GFP [16]): no binding affinity
- mHTT level in cortices (mHTT [17]): significantly reduced
- mutant ATXN3 protein level [10]: decrease
- loss of processes and shrinkage of HD neurons after removal of BDNF [11]: significantly improved
